Results reported in patent US20120258980A1, “Antibacterial Agent for Drug-Resistant Bacteria, Method for Screening for Same, and Use of Same” (priority 2009, published 2012).
Converted amounts (≈) assume the structure as drawn. Where two headings read alike, the source gives them in different places.

How the values were obtained:
[1] = system: methicillin-susceptible S. aureus (MSSA), MRSA and mutants thereof; assay: MIC measurement, Test Example 3 (MSSA, MRSA and sequential gyrA/grlA quinolone-resistant mutants); assay type: cell-based, Staphylococcus aureus; details: Staphylococcus aureus
Text: That is, the first-step quinolone-resistant mutants are bacterial strains which are the same as their parent strains (clinical isolates) except that the genes shown in the corresponding parts of Table 1-1 are mutated. The second-step quinolone-resistant mutants are bacterial strains which are the same as the first-step quinolone-resistant mutants except that the genes shown in the corresponding parts of Table 1-1 are further mutated. The third-step quinolone-resistant mutants are bacterial strains which are the same as the second-step quinolone-resistant mutants except that the genes shown in the corresponding parts of Table 1-1 are further mutated. The fourth-step quinolone-resistant strain is a bacterial strain which is the same as the third-step quinolone-resistant mutant bacteria except that the gene shown in the corresponding part of Table 1-1 is further mutated.
(§1) Each of the bacterial strains listed in Table 1-1 was shake-cultured at 37° C. overnight in 4 mL of a medium (Tryptical Soy Broth: TSB, product of Becton Dickinson and Company). FDA209P was used as a control.
(§2) After completion of culturing, the resultant culture was suspended in a cation-adjusted Mueller Hinton Broth (CAMHB, product of Becton Dickinson and Company). Then, the obtained bacterial culture was adjusted in absorbance with the CAMHB so that the absorbance at 578 nm of the bacterial culture was adjusted to 0.3 measured by an absorption spectrometer. In addition, the resultant bacterial culture was 500-fold diluted with the CAMHB.
(§3) Each of the 500-fold diluted, pre-cultured bacterial cultures was added at 50 μL/well to the CAMHB containing the quinolones and the nybomycins at various concentrations (50 μL/well), followed by statically culturing at 37° C. overnight.
(§4) After completion of culturing, the growth of the bacteria was visually determined based on turbidity to measure MIC in each bacterial strain.

[2] = system: MRSA, CA-MRSA and MSSA of Staphylococcus aureus; assay: MIC measurement, Test Example 4 (MRSA, CA-MRSA and MSSA strains); assay type: cell-based; details: Staphylococcus aureus
Summary of the method: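 S. aureus strains (FDA209P control) grown overnight in TSB at 37° C, resuspended in CAMHB, adjusted to A578 0.3 and diluted 500-fold. Equal volume added to CAMHB with serial compound concentrations, incubated statically overnight at 37° C. MIC read visually as lowest concentration without turbidity.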

VRSA clinical isolates = assay: microbe, parasite or virus in culture; assay type: cell-based; details: Staphylococcus aureus
Experimental: as §1, §2, §3, §4
Here, the glycopeptides used were VCM and TEIC. The β-lactam used was OXA.

Enterococcus faecalis = assay: MIC measurement, Test Example 6 (enterococcus); assay type: cell-based; details: Enterococcus faecalis, read-out: MIC
Experimental: as §1, §2, §3, §4
Quinolones and nybomycins were evaluated for antibacterial activity against Enterococcus faecalis shown in Table 6, wherein the other strains than NCTC12201 and NCTC12203 were subdivided from Shionogi & Co., Ltd (note that these strains are available also from the Department of Bacteriology, Juntendo University). The NCTC strains are both vancomycin-resistant E. faecalis and available from the National Collection of Type Cultures (NCTC).

CC1COc2c(N3CCN(C)CC3)c(F)cc3c(=O)c(C(=O)O)cn1c23 (stereo not drawn) [OFLX, ofloxacin] was tested, and the MIC ([1]; MR5867-1, first-step quinolone-resistant mutant, grlA E84K) was 1 µg/mL (≈ 2.77 µM), the MIC ([1]; MR5867-3, third-step mutant, further grlA S80F) was 64 µg/mL (≈ 177 µM) and the MIC ([1]; MR5867-4, fourth-step mutant, further gyrA E88K) was over 128 µg/mL. The MIC ([1]; MS5935-1, first-step quinolone-resistant mutant, grlA S80F) was 1 µg/mL (≈ 2.77 µM), the MIC ([1]; MS5935-3, third-step mutant, further grlA E84K) was 128 µg/mL (≈ 354 µM) and the MIC ([1]; MS5952-1, first-step quinolone-resistant mutant, grlA S80Y) was 1 µg/mL (≈ 2.77 µM). For the same molecule, the MIC ([1]; MS5952-3, third-step mutant, further grlA A116V) was 64 µg/mL (≈ 177 µM), the MIC ([2]; ATCC 29213 / MRSA / MSSA, ATCC 29213, MSSA) was 0.25 µg/mL (≈ 0.692 µM) and the MIC ([2]; COL, MRSA) was 0.5 µg/mL (≈ 1.38 µM). For the same molecule, the MIC ([2]; FDA209P / MRSA / MSSA, FDA209P, MSSA) was 0.125 µg/mL (≈ 0.346 µM), the MIC ([2]; ISA12-1, MRSA) was 0.5 µg/mL (≈ 1.38 µM) and the MIC ([2]; ISA12-2, MRSA) was 0.5 µg/mL (≈ 1.38 µM). The MIC ([2]; ISA35-1, MRSA) was 2 µg/mL (≈ 5.53 µM), the MIC ([2]; ISA37-1, MSSA) was 0.25 µg/mL (≈ 0.692 µM) and the MIC ([2]; ISA49-1, MSSA) was 0.25 µg/mL (≈ 0.692 µM). For the same molecule, the MIC ([2]; ISA51-1, MSSA) was 0.5 µg/mL (≈ 1.38 µM), the MIC ([2]; ISA56-3, MRSA) was 0.5 µg/mL (≈ 1.38 µM) and the MIC ([2]; ISA58-1, MRSA) was 0.5 µg/mL (≈ 1.38 µM). It also gave an MIC ([2]; ISA62-1, MRSA) of 0.25 µg/mL (≈ 0.692 µM), an MIC ([2]; ISA73-1, MSSA) of 0.25 µg/mL (≈ 0.692 µM) and an MIC ([2]; KBSA32, MRSA) of 0.25 µg/mL (≈ 0.692 µM). The MIC ([2]; KBSA34, MRSA) was 0.5 µg/mL (≈ 1.38 µM), the MIC ([2]; KBSA72, MRSA) was over 128 µg/mL and the MIC ([2]; KBSA96, MRSA) was 16 µg/mL (≈ 44.3 µM). It also gave an MIC ([2]; KBSA171, MRSA) of 32 µg/mL (≈ 88.6 µM), an MIC ([2]; KSA24, MRSA) of 32 µg/mL (≈ 88.6 µM) and an MIC ([2]; KSA31, MRSA) of 8 µg/mL (≈ 22.1 µM). It also gave an MIC ([2]; KSA36, MRSA) of over 128 µg/mL, an MIC ([2]; MRSA / MSSA / NCTC 8325, NCTC 8325, MSSA) of 0.25 µg/mL (≈ 0.692 µM) and an MIC ([2]; MRSA / MSSA / USA300, USA300 FPR3757, CA-MRSA) of 16 µg/mL (≈ 44.3 µM). For the same molecule, the MIC ([2]; MW2, CA-MRSA) was 0.5 µg/mL (≈ 1.38 µM), the MIC ([2]; N315, MRSA) was 0.25 µg/mL (≈ 0.692 µM) and the MIC (VRSA clinical isolates; VRS1, VRSA, Michigan) was 32 µg/mL (≈ 88.6 µM). The MIC (VRSA clinical isolates; VRS2, VRSA, Pennsylvania) was 32 µg/mL (≈ 88.6 µM), the MIC (VRSA clinical isolates; VRS3, VRSA, New York) was 32 µg/mL (≈ 88.6 µM) and the MIC (VRSA clinical isolates; VRS4, VRSA, New York) was 32 µg/mL (≈ 88.6 µM). For the same molecule, the MIC (VRSA clinical isolates; VRS5, VRSA, Michigan) was over 128 µg/mL, the MIC (VRSA clinical isolates; VRS6, VRSA, Michigan) was 64 µg/mL (≈ 177 µM) and the MIC (VRSA clinical isolates; VRS7, VRSA, Michigan) was 64 µg/mL (≈ 177 µM). It also gave an MIC (Enterococcus faecalis; E. faecalis 36-15672, quinolone-susceptible enterococci) of 2 µg/mL (≈ 5.53 µM), an MIC (Enterococcus faecalis; E. faecalis 36-15673, quinolone-susceptible enterococci) of 2 µg/mL (≈ 5.53 µM) and an MIC (Enterococcus faecalis; E. faecalis 36-15678, quinolone-susceptible enterococci) of 2 µg/mL (≈ 5.53 µM). It also gave an MIC (Enterococcus faecalis; E. faecalis 36-15686, quinolone-resistant enterococci) of 128 µg/mL (≈ 354 µM), an MIC (Enterococcus faecalis; E. faecalis 36-15688, quinolone-susceptible enterococci) of 2 µg/mL (≈ 5.53 µM) and an MIC (Enterococcus faecalis; E. faecalis 36-15694, quinolone-resistant enterococci) of 64 µg/mL (≈ 177 µM). For the same molecule, the MIC (Enterococcus faecalis; E. faecalis 36-15696, quinolone-susceptible enterococci) was 2 µg/mL (≈ 5.53 µM), the MIC (Enterococcus faecalis; E. faecalis 36-15703, quinolone-resistant enterococci) was 64 µg/mL (≈ 177 µM) and the MIC (Enterococcus faecalis; E. faecalis 36-15716, quinolone-resistant enterococci) was 128 µg/mL (≈ 354 µM). For the same molecule, the MIC (Enterococcus faecalis; E. faecalis 36-15718, quinolone-susceptible enterococci) was 2 µg/mL (≈ 5.53 µM), the MIC (Enterococcus faecalis; E. faecalis 36-15720, quinolone-susceptible enterococci) was 2 µg/mL (≈ 5.53 µM) and the MIC (Enterococcus faecalis; E. faecalis 36-15722, quinolone-resistant enterococci) was 64 µg/mL (≈ 177 µM). The MIC (Enterococcus faecalis; E. faecalis 36-15726, quinolone-resistant enterococci) was 128 µg/mL (≈ 354 µM), the MIC (Enterococcus faecalis; E. faecalis 36-15730, quinolone-susceptible enterococci) was 4 µg/mL (≈ 11.1 µM) and the MIC (Enterococcus faecalis; E. faecalis 36-15736, quinolone-susceptible enterococci) was 2 µg/mL (≈ 5.53 µM). The MIC (Enterococcus faecalis; E. faecalis 36-15741, quinolone-susceptible enterococci) was 4 µg/mL (≈ 11.1 µM), the MIC (Enterococcus faecalis; NCTC 12201 / VRE, E. faecalis NCTC12201, vancomycin-resistant (VRE), quinolone-susceptible enterococci) was 2 µg/mL (≈ 5.53 µM) and the MIC (Enterococcus faecalis; NCTC 12203 / VRE, E. faecalis NCTC12203, vancomycin-resistant (VRE), quinolone-susceptible enterococci) was 2 µg/mL (≈ 5.53 µM).
